In US3963716A, “Novel 1-phthalazone derivative, a process for its preparation and a pharmaceutical composition containing it” (priority 1973, dated 1976):
Where two headings read alike, the source gives them in different places.

Legend:
[1] = system: spontaneously hypertensive rats; assay: hypotensive effect in spontaneously hypertensive rats; type: in vivo, rat; conditions: for Blood Pressure: 50 mg/Kg intraperitoneally
Source text: The present compounds have a unique hypotensive effect in spontaneously hypertensive rats. The spontaneously hypertensive rats, abbreviated as SH rats, are produced by selective breeding of spontaneously hypertensive rats and continuous inbreeding with hypertensive mates, and they might be acknowledged as genetically hypertensive. It is believed that SH rats have a striking similarity to human essential hypertension and their reactions can be extrapolated to this morbid condition.
In the blood pressure test, SH rats weighing 210 - 250 g and aged 13-15 weeks were used, and the compounds tested were administered intraperitoneally. Each value in the Table V hows an average figure for three rats.

aorta of rabbits = assay: prevention of cholesterol-induced atherosclerosis in rabbits (surface covered by fatty streaks in the aorta); type: in vivo, albino rabbits; conditions: rabbit aorta; oral 1 mg/Kg daily, 15 weeks, diet with 1% cholesterol; placebo 54.6±5.4
Procedure: Forty healthy albino rabbits of the same age and of the same family were used in the experiment.
After the completion of the regimen, the rabbits were killed and the percentage of the surface covered by fatty streaks was measured in each aorta of the rabbits stained with Sundan IV. The percent of the surface covered by fatty streaks in the aorta of the rabbits was measured by the procedure described in T. Shimamoto, F. Numano, T. Fujita; American Heart Journal, 71, 2216 (1966).

human platelet = human platelet aggregation in vitro induced by ADP or adrenaline (CPRP); type: cell-based; conditions: 200 s
Procedure: Samples of human CPRP (citrated platelet-rich plasma) were incubated at 37°C. for 200 sec. with 1/10 volume of saline containing various amount of the compound to be tested. To the mixture was then added ADP (3μMole) or adrenaline (1 μg/ml). Intensity of primary and secondary aggregation was measured with a platelet aggregation meter (Chrono-Log, Model 300).
Intensity of ADP- or adrenaline-induced aggregation of each sample, which was incubated with the compound, was compared with that of the same sample incubated with saline. The ratio was expressed as a percentage of intensity of aggregation with the compound against one with saline.
The intensity of primary and secondary aggregation of platelets was measured by the procedure described in H. Yamazaki, T. Sano, et al.; title[Platelet Functions in Thromboembolic Disorders] Thrombosis et Diatheses Haemorrhagica "in press" and the references cited therein.

[2] = biological target: cyclic AMP phosphodiesterase; assay: inhibition of cyclic AMP phosphodiesterase, aortic wall media (rabbit); type: biochemical; conditions: 50% inhibition of cyclic AMP phosphodiesterase; read-out: I50, Aortic Wall, Media (rabbit)
Procedure: (§1) The procedure of the experiment was carried out in accordance with the method described in H. Hidaka and M. Shibuya: title "A new assay of cyclic nucleotide phosphodiesterase and its application to humans", Biochemical Medicine, (in press).

[3] = system: cyclic AMP phosphodiesterase; assay: inhibition of cyclic AMP phosphodiesterase, human platelet; type: biochemical; conditions: 50% inhibition of cyclic AMP phosphodiesterase; read-out: I50, Platelet (human)
Procedure: as §1

in vivo = conditions: mouse, oral, mice
aortic wall of rabbits = assay: regression of preestablished cholesterol-induced atherosclerosis in rabbits (cholesterol content of the aortic wall); type: in vivo, albino rabbits; conditions: oral 1 mg/Kg daily, head prints (μg)
Source text: For the regressive test, 50 healthy albino rabbits were fed with a diet containing 1% cholesterol for 15 weeks. Five rabbits were killed at the 15th week of the cholesterol feeding and the remaining 45 rabbits were divided into 3 groups. […] Five each of the rabbits of the 3 groups were killed after 6, 10 and 20 weeks, respectively. The total contents of cholesterol in the aortic wall were estimated by gas chromatography, the results of which are shown in the Table III.
1. The total content of cholesterol in the aortic wall was measured by the procedure described in T. Shimamoto, F. Numano, T. Fujita et al.; Asian med. Journal, 8. 12 (1965) 2. […] 3. The total chloesterol contents indicated in Table III were shown in μg per one mg of the dried aortic wall. The value in the Table is the average figure for 5 rabbits

[4] = biological target: cyclic AMP phosphodiesterase; assay: inhibition of cyclic AMP phosphodiesterase, aortic wall intima (rabbit); type: biochemical; conditions: 50% inhibition of cyclic AMP phosphodiesterase; read-out: I50, Aortic Wall, Intima (rabbit)
Procedure: as §1

[5] = read-out: Inhibition ratio, primary aggregation, Adrenaline 1μg/ml
[6] = read-out: Inhibition ratio, secondary aggregation, Adrenaline 1μg/ml

For `CCOC(=O)c1ccc2c(CO)n[nH]c(=O)c2c1` [7-ethoxycarbonyl-4-hydroxymethyl-1-phthalazone], the “Blood Pressure” value ([1]; 1 hr) was 165, the “Blood Pressure” value ([1]; 3 hr) was 176 and the “Blood Pressure” value ([1]; 6 hr) was 180. For the same compound, the “Blood Pressure” value ([1]; 24 hr) was 179, the “Blood Pressure” value ([1]; 48 hr) was 184 and the “Blood Pressure” value ([1]; before dosing) was 178. The “hypotensive effect (in words)” value ([1]; intraperitoneal or oral doses up to 50 mg/Kg) was “did not exhibit a significant hypotensive effect”, the “Percent of surface covered by fatty streaks” value (aorta of rabbits) was 28.8±3.6% and the activity at 5 µg/mL (human platelet; 5 μg/ml, intensity with compound vs saline, read-out: Inhibition ratio, primary aggregation, ADP 3 μM) was 90.5 ± 5.6%. It also gave an activity at 5 µg/mL (human platelet; 5 μg/ml, intensity with compound vs saline, read-out: Inhibition ratio, secondary aggregation, ADP 3 μM) of 84.9 ± 6.3%, an activity at 10 µg/mL (human platelet; 10 μg/ml, intensity with compound vs saline, read-out: Inhibition ratio, primary aggregation, ADP 3 μM) of 81.9 ± 5.2% and an activity at 10 µg/mL (human platelet; 10 μg/ml, intensity with compound vs saline, read-out: Inhibition ratio, secondary aggregation, ADP 3 μM) of 67.1 ± 6.3%. For the same compound, the activity at 20 µg/mL (human platelet; 20 μg/ml, intensity with compound vs saline, read-out: Inhibition ratio, primary aggregation, ADP 3 μM) was 77 ± 5.1%, the activity at 20 µg/mL (human platelet; 20 μg/ml, intensity with compound vs saline, read-out: Inhibition ratio, secondary aggregation, ADP 3 μM) was 58.6 ± 7.6% and the activity at 80 µg/mL (human platelet; 80 μg/ml, intensity with compound vs saline, read-out: Inhibition ratio, primary aggregation, ADP 3 μM) was 62.9 ± 5%. It also gave an activity at 80 µg/mL (human platelet; 80 μg/ml, intensity with compound vs saline, read-out: Inhibition ratio, secondary aggregation, ADP 3 μM) of 15.7 ± 0.4%, an activity at 5 µg/mL (human platelet; [5]) of 106 ± 6.9% and an activity at 10 µg/mL (human platelet; [5]) of 97 ± 4.1%. For the same compound, the activity at 20 µg/mL (human platelet; [5]) was 92.9 ± 16.9%, the activity at 5 µg/mL (human platelet; [6]) was 80.8 ± 13.9% and the activity at 10 µg/mL (human platelet; [6]) was 82.1 ± 9.5%. For the same compound, the activity at 20 µg/mL (human platelet; [6]) was 71.7 ± 13.5%, the activity at 80 µg/mL (human platelet; [6]) was 33 ± 7.1% and the IC50 [2] was 144 µM. For the same compound, the IC50 [3] was 57 µM, the LD50 (in vivo) was 5000 mg/kg and the “Cholesterol content (aortic wall, total)” value (aortic wall of rabbits; 6 weeks, placebo 32.1±3.6) was 24.6±3.0 μg/mg dry weight. For the same compound, the “Cholesterol content (aortic wall, total)” value (aortic wall of rabbits; 10 weeks, placebo 33.8±3.0) was 12.2±3.5 μg/mg dry weight, the “Cholesterol content (aortic wall, total)” value (aortic wall of rabbits; 20 weeks, placebo 29.5±5.4) was 6.4±2.7 μg/mg dry weight and the IC50 [4] was 52 µM.
